Measured values from article PMC9250296 (Journal of the American Chemical Society, 2021).
Numbered stars: 1 amine (or outer) side, 2 acyl side, 3 side chain; on linkers, the order of the positions; unused ones are H or OH. Bridge positions count the residues as written; N and C are the ends. Square brackets hold non-standard residues; d marks the D form. Peptide text beside a SMILES is read from it. * marks the point of attachment. X1 = O=C([C@@H]1C[C@@H](SCc2cccc(C[*:3])c2)CN1[*:1])[*:2]; X2 = C=CCS[C@@H]1C[C@@H](C(=O)[*:2])N([*:1])C1; Ac3c = NC1(C(=O)O)CC1; Allyl = C=CC*

Key:
CD thermal melts = type: physicochemical; conditions: CD thermal melt, Trp-Trp exciton coupling band at 228 nm, aqueous solution
[1] = HeLa cell lysate stability assay; conditions: for primary degradation products in HeLa cell lysate: after 24 hours, mass spectrometry; for remaining at 4 h / half-life: human
in vitro = conditions: human, cells or culture medium

| T50 (temperature at which the peptide retains 50% structure) (CD thermal melts) [°C] | remaining at 4 h [1] [%] | half-life [1] [h] | SMILES | primary degradation products in HeLa cell lysate [1] | remaining at 2 h (in vitro) [%] |
| --- | --- | --- | --- | --- | --- |
| 50.8 | ~22 |  | C=CCSC[C@H](NC(=O)[C@@H](Cc1ccc(O)cc1)NC(=O)[C@H](Cc1c[nH]c2ccccc12)NC(=O)[C@@H](NC(=O)[C@@H](N)CCCCN)[C@@H](C)O)C(=O)N[C@H](C(=O)N1CCC[C@@H]1C(=O)NC1(C(=O)NCC(=O)N2C[C@H](SCC=C)C[C@H]2C(=O)NCC(=O)N[C@@H](Cc2c[nH]c3ccccc23)C(=O)N[C@H](C(=O)N[C@@H](CCC(=O)O)C(=O)O)[C@@H](C)O)CC1)[C@@H](C)O [4MP-a] (H-KTW[dY]C(Allyl)T[dP][Ac3c]G[X2]GWTE-OH; N-terminus and C-terminus assumed) | intact except for the two N-terminal amino acids |  |
|  |  | 21 | CC(=O)N[C@H](C(=O)N[C@@H](Cc1c[nH]c2ccccc12)C(=O)N[C@H](Cc1ccc(O)cc1)C(=O)N[C@H]1CSCc2cccc(c2)CS[C@@H]2C[C@@H](C(=O)NCC(=O)N[C@@H](Cc3c[nH]c4ccccc34)C(=O)N[C@H](C(N)=O)[C@@H](C)O)N(C2)C(=O)CNC(=O)C2(CC2)NC(=O)[C@H]2CCCN2C(=O)[C@H]([C@@H](C)O)NC1=O)[C@@H](C)O [Δ4MP-m] (Ac-TW[dY]CT[dP][Ac3c]G[X1]GWT-NH2; thioether 4-9) |  |  |
|  |  |  | CC(=O)N[C@H](C(=O)N[C@@H](Cc1c[nH]c2ccccc12)C(=O)N[C@@H](CC(N)=O)C(=O)N1CCC[C@H]1C(=O)N[C@@H](C)C(=O)N[C@H](C(=O)NCC(=O)N[C@@H](CCCCN)C(=O)N[C@@H](Cc1c[nH]c2ccccc12)C(=O)N[C@H](C(N)=O)[C@@H](C)O)[C@@H](C)O)[C@@H](C)O [ΔHP7] (Ac-TWNPATGKWT-NH2; N-terminus and C-terminus assumed) |  | ~19 |
|  |  | 30 | C=CCSC[C@H](NC(=O)[C@@H](Cc1ccc(O)cc1)NC(=O)[C@H](Cc1c[nH]c2ccccc12)NC(=O)[C@@H](NC(C)=O)[C@@H](C)O)C(=O)N[C@H](C(=O)N1CCC[C@@H]1C(=O)NC1(C(=O)NCC(=O)N2C[C@H](SCC=C)C[C@H]2C(=O)NCC(=O)N[C@@H](Cc2c[nH]c3ccccc23)C(=O)N[C@H](C(N)=O)[C@@H](C)O)CC1)[C@@H](C)O [Δ4MP-a] (Ac-TW[dY]C(Allyl)T[dP][Ac3c]G[X2]GWT-NH2; N-terminus and C-terminus assumed) |  |  |
| 58.5 | ~7 |  | C[C@@H](O)[C@H](NC(=O)[C@H](Cc1c[nH]c2ccccc12)NC(=O)CNC(=O)[C@@H]1C[C@@H]2CN1C(=O)CNC(=O)C1(CC1)NC(=O)[C@H]1CCCN1C(=O)[C@H]([C@@H](C)O)NC(=O)[C@@H](NC(=O)[C@@H](Cc1ccc(O)cc1)NC(=O)[C@H](Cc1c[nH]c3ccccc13)NC(=O)[C@@H](NC(=O)[C@@H](N)CCCCN)[C@@H](C)O)CSCc1cccc(c1)CS2)C(=O)N[C@@H](CCC(=O)O)C(=O)O [4MP-m] (H-KTW[dY]CT[dP][Ac3c]G[X1]GWTE-OH; thioether 5-10; N-terminus and C-terminus assumed) | intact except for the two N-terminal amino acids |  |

| SMILES | T50 (temperature at which the peptide retains 50% structure) (CD thermal melts) [°C] | remaining at 4 h [1] [%] | half-life [1] [h] | primary degradation products in HeLa cell lysate [1] | remaining at 2 h (in vitro) [%] |
| --- | --- | --- | --- | --- | --- |
| C[C@H](NC(=O)[C@@H]1CCCN1C(=O)[C@H](CC(N)=O)NC(=O)[C@H](Cc1c[nH]c2ccccc12)NC(=O)[C@@H](NC(=O)[C@@H](N)CCCCN)[C@@H](C)O)C(=O)N[C@H](C(=O)NCC(=O)N[C@@H](CCCCN)C(=O)N[C@@H](Cc1c[nH]c2ccccc12)C(=O)N[C@H](C(=O)N[C@@H](CCC(=O)O)C(=O)O)[C@@H](C)O)[C@@H](C)O [HP7, reference compound] (H-KTWNPATGKWTE-OH; N-terminus and C-terminus assumed) | 58.7 |  |  |  | ~0 |
